{
  "source": "paper PMC11049802",
  "about": "(International Journal of Molecular Sciences, 2024)",
  "target": "E. coli nitroreductase A (NfsA) (Escherichia coli, UniProt P17117)",
  "sequence (P17117 whole entry)": "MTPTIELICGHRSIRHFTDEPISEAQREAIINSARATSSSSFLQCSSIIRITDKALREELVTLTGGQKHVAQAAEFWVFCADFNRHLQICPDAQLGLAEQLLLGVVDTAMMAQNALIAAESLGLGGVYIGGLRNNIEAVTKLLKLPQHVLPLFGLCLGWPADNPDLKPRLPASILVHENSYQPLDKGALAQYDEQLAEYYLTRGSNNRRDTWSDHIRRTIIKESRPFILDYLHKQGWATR",
  "assay": "steady-state kinetics; competitive inhibition versus NADPH (also reduced as a substrate)",
  "format": "biochemical",
  "data": [
    {"compound": "CC(=O)c1ccc[n+]([C@@H]2O[C@H](COP(=O)([O-])OP(=O)(O)OC[C@H]3O[C@@H](n4cnc5c(N)ncnc54)[C@H](OP(=O)(O)O)[C@@H]3O)[C@@H](O)[C@H]2O)c1", "note": "[APADP+]", "values": [
      {"measurement": "Ki", "result": "150 ± 12", "unit": "µM"}
    ]}
  ]
}
